Measured values taken from US5407815A, “R-(-)-1-(5-hydroxyhexyl)-3-methyl-7-propylxanthine, a process for its preparation and pharmaceuticals containing this compound” (Hoechst Aktiengesellschaft, priority 1989, dated 1995).

Assays:
[1] = system: regional cerebral blood flow; test: Regional cerebral blood flow of the cat, heat conductivity technique (heat transport number λ); format: in vivo; conditions: for duration of action as the half life t1/2 / Δλ% (mean percentage change of the heat transport number): anesthetized cat, 25 mg/kg intraduodenally; for Δλ% (mean percentage change of the heat transport number): suspension in 1% carboxymethylcellulose, n = 6 to 11; for conversion factor (f), based on Δλ%=1 for the racemate: intraduodenal, 25 mg/kg; for cerebral blood flow-stimulating action relative to racemate: racemate made equal to 1
Procedure: The action of compound 1 according to the invention on the regional cerebral blood flow was investigated in comparison with the racemate 2 and the S-(+)-enantiomer 3 with the aid of the heat conductivity technique according to F. A. Gibbs (Proc. Soc. exp. Biol. (N.Y.) 31 (1933), pp. 141 et seq.), H. Hensel (Naturwissenschaften 43 (1956), pp. 477 et seq.) and E. Betz (Acta Neurol. Scand. Suppl. 14 (1965), pp. 29-37) in cats of both sexes under sodium pentobarbital anesthesia (35 mg/kg i.p.). In this method, with the aid of a heat conductivity probe applied to the surface of the brain in the region of the Gyrus marginalis frontalis, the transport of heat from a point of heating to an adjacent temperature-measuring site in the probe, which is directly proportional to the level of the cerebral blood flow, is determined. The mean percentage change in the heat transport number λ after administration of the preparation is used as a measure of the increase in blood flow.
The compounds were administered intraduodenally as a suspension in 1% strength aqueous carboxymethylcellulose. The dose was 25 mg of test substance per kg of body weight. 6 to 11 individual experiments were carried out for each test preparation and the mean percentage change in the heat transport number (Δλ%) was determined from the measurement data obtained.
The melting points m.p., the enantiomeric purities e.e. (enantiomeric excess), the number of measurements n, the mean percentage change (Δλ%) of the heat transport number as a measure of the potency, the conversion factors f, based on Δλ%=1 for the racemate, and the duration of action as the half life t1/2 (min) for R-(-)-1-(5-hydroxyhexyl)-3-methyl-7-propylxanthine (1), the corresponding enantiomer S-(+)-1-(5-hydroxyhexyl)-3-methyl-7-propylxanthine (3) and the racemate (2) of the two compounds is indicated in Table 1.

cerebral blood flow = conditions: known from DE-C-2,366,527; cited from earlier work

## CCCn1cnc2c1c(=O)n(CCCC[C@@H](C)O)c(=O)n2C [Compound 1, R-(-)-1-(5-hydroxyhexyl)-3-methyl-7-propylxanthine]
[1]
  duration of action as the half life t1/2: 1.67 h
  Δλ% (mean percentage change of the heat transport number): +45%
  conversion factor (f), based on Δλ%=1 for the racemate: 1.88
  cerebral blood flow-stimulating action relative to racemate: about 2
[1]; ratio R-(-) to S-(+)
  cerebral blood flow-stimulating action of R-(-)-enantiomer relative to S-(+)-antipode: about three
  duration of action of R-(-)-compound relative to S-(+)-compound: about three

## CCCn1cnc2c1c(=O)n(CCCC[C@H](C)O)c(=O)n2C [Compound 3, S-(+)-1-(5-hydroxyhexyl)-3-methyl-7-propylxanthine]
[1]
  duration of action as the half life t1/2: 0.6 h
  Δλ% (mean percentage change of the heat transport number): +16%
  conversion factor (f), based on Δλ%=1 for the racemate: 0.67
  cerebral blood flow-stimulating action relative to racemate: about 0.65

## CCCn1cnc2c1c(=O)n(CCCCC(C)O)c(=O)n2C (racemic) [Compound 2, 1-(5-hydroxyhexyl)-3-methyl-7-propylxanthine]
[1]
  duration of action as the half life t1/2: 1.67 h
  Δλ% (mean percentage change of the heat transport number): +24%
  conversion factor (f), based on Δλ%=1 for the racemate: 1.00
  cerebral blood flow-stimulating action relative to racemate: 1
Cerebral blood flow
  cerebral blood flow-stimulating action (qualitative): cerebral blood flow-stimulating action
